Legend:
[1] = system: acetylcholine in medial prefrontal cortex; test: In vivo microdialysis, acetylcholine in medial prefrontal cortex; details: 17 mg/kg s.c., rat
Protocol: Animals: Adult male Sprague-Dawley rats (Charles River, Wilmington, Mass.) weighing 280-350 g at the time of surgery were used for all microdialysis experiments. Adult male Long-Evans rats (Charles River, Wilmington, Mass.) weighing 180-220 g were used for NOR studies. Rats were housed individually for recognition memory studies. All animals had free access to food and water and were group housed in the AAALAC-accredited facility that was maintained on a 12 h light dark cycle (lights on at 0600 h) for at least 1 week prior to surgery or behavioral testing. All in vivo studies were performed in accordance to the ‘Guide for the Care and Use of Laboratory Animals’ as adopted and promulgated by the National Institutes of Health (Pub. 85-23, 1985). […]
Analysis of Acetylcholine Dialysate levels of acetylcholine were determined using LC/MS/MS. […]
Acetylcholine data were quantified using peak area against an internal standard and acquired using Masslynx software (Micromass, Beverly, Mass., USA). The mean of the concentration of baseline samples was calculated and denoted as 0%. All sample values were expressed as a percent change from this pre-injection mean baseline value (% change from baseline). Neurochemical data, excluding pre-injection values, were analyzed by a two-way analysis of variance (ANOVA) with repeated measures (time). […]

[2] = system: male Sprague Dawley CD rats; test: Reversal of d-amphetamine induced deficits in pre-pulse inhibition (PPI); details: 3-17 mg/kg IP, d-amphetamine 4 mg/kg SC
[3] = system: male Sprague Dawley CD rats; test: Reversal of DOI induced deficits in PPI; details: significant at 17 mg/kg IP (3-30 mg/kg tested); DOI 3 mg/kg IP
male Sprague-Dawley rats = test: Schedule-induced polydipsia (SIP) in rats; format: in vivo, rat
Excerpt: SIP is a model of obsessive-compulsive disorder. In this model, a food pellet is delivered once per minute for a two-hour period. A water bottle is available in the chamber. […] This excessive manifestation of a normal behavior (drinking) provides face validity to the model. […] Most importantly, clinically effective drugs for the treatment of obsessive-compulsive disorder decrease adjunctive drinking.
Animals: Male Sprague-Dawley rats weighing 275-325 g were individually housed in wire hanging cages. Each cage was equipped with a water spigot attached to an automated watering system which allow free access to water at all times.
Methods Rats were placed in an operant chamber (Med Associates) equipped with a pellet dispenser, a food receptacle, a houselight and a water bottle with 100 ml of water. Houselights were turned on in the chamber and a food pellet (Bioserve, 45 mg) was delivered on a fixed-time 60 sec schedule, such that one pellet was delivered each minute during a 2 hour experimental session. At the end of the session, water intake was measured.
Experiments to control for schedule and baseline water intake were conducted by placing 120 pellets in the food receptacle at the start of a 2-hour experimental session. Houselights were turned on, but no additional food pellets were delivered. At the end of the session, water intake was measured.
Dose calculations were based on active moiety.
Evaluation of Results Data were analyzed using a one-way ANOVA. Post hoc tests comparing vehicle to doses of Compound 1 were conducted using contrasts in a least squares model. An ED50 value (dose decreasing polydipsic intake to 50% of vehicle values) was calculated using nonlinear regression models.

For `c1cc2c3c(c1)[C@H]1CCC[C@H]1N3CCNC2` [Compound 1], the “maximal increase in acetylcholine with respect to baseline” value [1] was 63%, the “attenuation of amphetamine induced deficit in PPI” value ([2]; all doses tested) was “significantly attenuated” and the “effect on startle alone responding” value [2] was “without having a significant effect”. The “attenuation of DOI induced disruption in gating (PPI)” value [3] was “significantly attenuated”, the “change in excessive water intake” value (male Sprague-Dawley rats; 3 mg/kg ip, p=0.0003) was −43% and the “change in excessive water intake” value (male Sprague-Dawley rats; 10 mg/kg ip, p<0.0001) was −87%. For the same compound, the ED50 (male Sprague-Dawley rats; Rattus norvegicus, ip, read-out: ED50 (dose decreasing polydipsic intake to 50% of vehicle values)) was 3.16 mg/kg, the “rats that did not eat all of their food pellets during the 2-hour session” value (male Sprague-Dawley rats; highest dose (10 mg/kg ip)) was 3 of 10 and the “MED for decrease in adjunctive drinking” value (male Sprague-Dawley rats; ip, acute, 2 hour session) was 3 mg/kg.
